The values below come from patent US20230390310A1, “PERSONALIZED, PRECISE, CONSISTENT BOTANICAL FORMULATIONS ON DEMAND” (ALTOPA, INC, priority 2022, published 2023).

“Also recorded” adds a separate entry of the source.

Data set [1] is described as follows: Patient-reported outcomes, pain and inflammation (Relief). The format is in vivo, patients. The note with it: pain / inflammatory conditions (pain and anxiety). The source says:
(§1) Relief includes Base Formulations used in connection with more than one patient suffering from pain and/or inflammatory diseases including neuropathic, and nociceptive pain caused by a range of injuries, arthritis, fibromyalgia, fibrosis, shingles, diabetes, and Lyme disease. Some patients suffering from pain were also suffering from COPD. […] For example, in the Table FIG. 1, Base Formulation TF8 has twice as much terpenes as TF7. […] If a patient was experience pain resulting from an inflammatory condition, such as COPD, then it was not necessary to include THC in the patient's formulations. However, if the patient was suffering from a type of pain such as nociceptive or neuropathic, the use of THC was beneficial. Increasing alpha pinene will be beneficial for patients with COPD.
In addition, even when a patient was reporting good symptom relief, patient dosages were titrated up, including both dosing frequency and dose size, to determine whether better relief could be achieved. […] Thereafter, the HCP would revert the formulation back to the previous dosage and constituent amounts. Treatment then continues forward at that reverted level.
(§2) FIG. 10 is a Pain Management Table, FIG. 11 is an Insomnia Table, FIG. 12 is a Cancer Treatment Support Table, FIG. 13 is an Anxiety, Depression, PTSD Management Table, FIG. 14 is a Chronic Obstructive Pulmonary Disease (COPD) Table, and FIG. 15 is a Irritable Bowel Syndrome Table. These are symptom-specific tables which summarize the pharmaceutical compositions where two or more patients, grouped by specific composition have reported moderate to substantial symptom improvement with the use of the specified composition for periods of use ranging from 1 to 24 months. With respect to the Tables in FIGS. 10-15, the amounts specified in the tables represent the mass in milligrams (mg) per 1.0 milliliter (mL). Dosing protocols vary and may involve a dosing volume ranging from 0.1 ml to 1 ml with a frequency of once, twice or three times a day (QD, BID, or TID, respectively), and in some cases used on an as-needed basis.

Data set [2] in a line: Patient-reported outcomes, gastrointestinal disorders (Wisdom). The note with it: 15-100 mg/mL added. Type of data set: in vivo, patients.
Text: Studies have shown that the Wisdom BASE formulations relieve symptoms associated with gastrointestinal disorders, such as IBS and others.
as §2

Data set [3] can be described thus: Patient-reported side effects and tolerability.
A short description of data set [4]: Patient-reported outcomes, insomnia and sleep (Rest). Type of data set: in vivo, patients. The note with it: THC small amount (0.25-10 mg/ml); terpenes increased by 0.25-3.5 mg/mL.
Text: as §2

A short description of data set [5]: Patient-reported outcomes, COPD. The format is in vivo. The note with it: patients suffering from COPD.
Text: as §1
(§3) FIG. 10 is a Pain Management Table, FIG. 11 is an Insomnia Table, FIG. 12 is a Cancer Treatment Support Table, FIG. 13 is an Anxiety, Depression, PTSD Management Table, FIG. 14 is a Chronic Obstructive Pulmonary Disease (COPD) Table, and FIG. 15 is a Irritable Bowel Syndrome Table. These are symptom-specific tables which summarize the pharmaceutical compositions where two or more patients, grouped by specific composition have reported moderate to substantial symptom improvement with the use of the specified composition for periods of use ranging from 1 to 24 months. […]

A short description of data set [6]: Patient-reported outcomes, anxiety, depression, PTSD (Calm / Serenity). Type of data set: in vivo, patients. The note with it: people with anxiety.
Text: FIGS. 2 and 3 show Oblend® Treatment Family (Oblend Tx) Calm formulations and Oblend Tx Serenity formulations. These tables include base formulations (BASE) for subjects suffering from anxiety, depression, and PTSD. The BASE Formulation is selected from Calm or Serenity Tables based on the subject's symptoms.
Some patients respond well to LIM and LOL while others respond better to more sedative terpenes like MYR and TPN. In most cases, patients with anxiety respond well to Calm Tx formulations. […] If a patient suffering from anxiety initially began treatment with the Calm Base and experienced some symptom relief, then, this patient continued taking Calm formulations from Calm or a personalized formulation with a similar terpene profile as Calm.
as §3

`CCCCCc1cc(O)c2c(c1)OC(C)(CCC=C(C)C)C=C2` (stereo not shown) [CBC, Cannabichromene]: the “patient outcomes on adding the ingredient to the formulation” value (“patient outcomes” for short) in data set [1] is “in some cases, patients reported a reduction in symptoms; also recorded: favorable patient outcomes improved dramatically”.

For `C=C(C)[C@@H]1CCC(C)=C[C@H]1c1c(O)cc(CCCCC)cc1O` [CBD, Cannabidiol], the “gastrointestinal symptom relief on adding the ingredient” value in data set [2] is “improved symptom relief”.

In the case of `CCCCCc1cc(O)c(C/C=C(\C)CCC=C(C)C)c(O)c1` [CBG, Cannabigerol], the “patient outcomes” value in data set [1] is reported as “some patients reported a reduction in symptoms; also recorded: favorable patient outcomes increased”.

Turning to `CCCCCc1cc(O)c2c(c1)OC(C)(C)c1ccc(C)cc1-2` [CBN, Cannabinol], the “patient outcomes” value in data set [1] is reported as “favorable patient outcomes increased”.

As to `CCCCCc1cc(O)c2c(c1)OC(C)(C)C1CC=C(C)CC21` (stereo not shown) [Delta-8, delta-8-tetrahydrocannabinol], in data set [3] (according to most patients), the “side-effects compared with Delta-9 THC” value is recorded as “fewer side-effects”.

`CCCCCc1cc(O)c2c(c1)OC(C)(C)[C@@H]1CCC(C)=C[C@@H]21` [THC, Tetrahydrocannabinol, reference compound]: the “patient outcomes” value in data set [1] is recorded as “improved pain relief”. Also, the “sleep on adding or increasing the ingredient” value in data set [4] was “patients were able to fall asleep; also recorded: improves sleep”.

Regarding `CC1=CCC2CC1C2(C)C` (stereo not drawn) [alpha-pinene, Alpha Pinene], the “COPD outcomes on increasing the terpene” value in data set [5] is on record as “significantly improved outcomes”.

For `C=C1CC/C=C(\C)CC[C@@H]2[C@@H]1CC2(C)C` [beta Caryophyllene, Beta Caryophyllene], the “patient outcomes” value in data set [1] is recorded as “significant improvement in symptom relief; also recorded: increased patient outcomes”. Further, the “COPD outcomes on increasing the terpene” value in data set [5] is reported as “significantly improved outcomes”.

As to `C=C(C)[C@H]1CC=C(C)CC1` [limonene, Limonene], the “anxiety response to the terpene” value in data set [6] is recorded as “make some people more anxious”.

For `C=CC(C)(O)CCC=C(C)C` (stereo not shown) [linalool, Linalool], the “sleep on adding or increasing the ingredient” value in data set [4] is recorded as “improves sleep”.

Regarding `C=CC(=C)CCC=C(C)C` [myrcene, Myrcene], the “sleep on adding or increasing the ingredient” value in data set [4] was “increased the duration and quality of sleep; also recorded: improves sleep”.

For the molecule `C=CC(C)(O)CCC=C(C)CCC=C(C)C` (stereo not shown) [nerolidol, Nerolidol], the “sleep on adding or increasing the ingredient” value in data set [4] is “increased the duration and quality of sleep”. Besides, in data set [3] (ingredient of most formulations), the allergy result is reported as “some patients are allergic”.

For the molecule `CC1=CCC(=C(C)C)CC1` [terpinolene, Terpinolene], the “sleep on adding or increasing the ingredient” value in data set [4] is “increased the duration and quality of sleep; also recorded: improves sleep”.
